Earlier results in paper PMC7544826 (Communications Biology, 2020).

Tested on: Notum
Parameters: method as in PMID 31876313
Details: read-out: IC50, Notum inhibition (reported potency); cited from earlier work

## COc1ccc2[nH]cc(CCNC(C)=O)c2c1 [melatonin]
  IC50: 75 µM
